# Results reported in patent publication US11040949B2, “Compounds affecting pigment production and methods for treatment of bacterial diseases” (Versitech Limited, priority 2017, dated 2021).
# System: not listed separately
# Test: Solubility in simulated gastric and intestinal fluids
# Format: physicochemical
# Settings: pH 2
# Source text: The following table (Table 4) illustrates the solubility of two different compounds, NP16-XL-016 (hereinafter as “IM032”) and NP16-XL-061 (hereinafter as “IM032-C”), in two solutions with different pH values simulating the pH of gastric juice and human intestinal fluid using HCl and phosphate buffer respectively.
row,Solubility in pH 2 (0.1N HCl + 0.1% Tween 80)-simulating human stomach,SMILES
1,<LOQ,"O=C(/C=C/c1ccccc1Cl)Nc1ccc(S(=O)(=O)N2CCCCC2)cc1 [NP16-XL-061, 3-(6-chlorophenyl)-N-[4-(1-piperidine-1-sulfonyl)phenyl]-acrylamide]"

# Same assay, conditions: pH 7.4, aqueous with cosolvent or surfactant or cyclodextrin; read-out: Solubility in pH 7.4 (KH2PO4 + 0.1% Tween 80)-simulating human intestine
row,solubility [µg/mL],SMILES
1,0.0856,"O=C(/C=C/c1ccccc1Cl)Nc1ccc(S(=O)(=O)N2CCCCC2)cc1 [NP16-XL-061, 3-(6-chlorophenyl)-N-[4-(1-piperidine-1-sulfonyl)phenyl]-acrylamide]"

# System: S. aureus USA300
# Test: In vitro staphyloxanthin production inhibition by NP-16 analogues
# Format: cell-based, Staphylococcus aureus
# Settings: S. aureus USA300, methanol extract OD 450 nm, 300 nM to 700 nM
# Description: Evaluation of NP-16 analogues in Staphyloxanthin production
# The in vitro pigment inhibition studies were performed by S. aureus USA300 cultured in BHI with or without the presence of inhibitor compounds at 37° C. and 250 rpm for 36-48 hours. The bacteria were washed twice with PBS prior to the staphyloxanthin purification with methanol. The OD of the extracts were monitor at 450 nm using DTX880 multi-plate reader spectrophotometer (Beckman). The concentration range tested for the compounds were between 300 nM to 700 nM, and control groups were added with equal volume of DMSO.
# The cytotoxicity of NP-16 and some of its analogues was tested against Raw 264.7 cells, and the cell tolerance of each compounds were documented in Table 3. Along with the in vitro staphyloxanthin production of the NP-16 analogues were being tested, the compounds can exert staphyloxanthin production inhibition. The staphyloxanthin from the overnight-cultured bacteria were extracted with methanol and quantified in via spectrophotometry. The results were presented in relative ratio to NP-16 in both the inhibition ratio as well as the TC50 (concentration for decreasing cell viability by 50%) in Table 3 (sample names correspond to those listed in Table 1).
row,SMILES,Relative ratio to NP16 based on inhibition ratio
1,"CC(=O)Oc1ccc(/C=C/C(=O)Nc2ccc(S(=O)(=O)N3CCCCC3)cc2)cc1 [NP16-XL-011, 3-(4-acetoxyl-phenyl)-N-[4-(1-piperidine-1-sulfonyl)phenyl]-acrylamide]",1.31
2,"O=C(/C=C/c1ccccn1)Nc1ccc(S(=O)(=O)Nc2ccccc2)cc1 [NP16-XL-044, 3-(pyridin-2-yl)-N-[(4-phenyl-sulfamoyl)phenyl]-acrylamide]",2.47
3,"O=C(/C=C/c1ccc(Br)cc1)Nc1ccc(S(=O)(=O)N2CCc3ccccc3C2)cc1 [NP16-XL-031, 3-(4-bromophenyl)-N-[4-(3,4-dihydro-1H-isoquinoline-2-sulfonyl)phenyl]-acrylamide]",0.23
4,"O=C(/C=C/c1cccnc1)Nc1ccc(S(=O)(=O)Nc2ccccc2)cc1 [NP16-XL-042, 3-(pyridin-3-yl)-N-[(4-phenyl-sulfamoyl)phenyl]-acrylamide]",1.44
5,"CN1CCN(S(=O)(=O)c2ccc(NC(=O)/C=C/c3c(F)cccc3F)cc2)CC1 [NP16-XL-053, 3-(2,6-difluoro-phenyl)-N-[4-(4-methyl-1,4-piperazine-1-sulfonyl)phenyl]-acrylamide]",1.26
6,"O=C(/C=C/c1ccccc1)Nc1ccc(S(=O)(=O)N(C(=O)/C=C/c2ccccc2)c2ccccc2)cc1 [NP16-XL-036, 3-phenyl-N-{[4-(N-phenyl-3-phenylprop-2-enamido)sulfonyl]-phenyl}-acrylamide]",3.04
7,"Cc1ccc(/C=C/C(=O)Nc2ccc(S(=O)(=O)N3CCCCC3)cc2)cc1 [NP16-XL-017, 3-(4-methylphenyl)-N-[4-(1-piperidine-1-sulfonyl)phenyl]-acrylamide]",0.09
8,"O=C(/C=C/c1ccccc1)Nc1ccc(S(=O)(=O)N2CCCc3ccccc32)cc1 [NP16-XL-030, 3-phenyl-N-[4-(1,2,3,4--tetra-hydroquinoline-1-sulfonyl)phenyl]-acrylamide]",1.26
9,"O=C(/C=C/c1c(F)cccc1F)Nc1ccc(S(=O)(=O)Nc2ccccc2)cc1 [NP16-XL-040, 3-(2,6-difluoro-phenyl)-N-[(4-phenylsulfamoyl)-phenyl]acrylamide]",2.51
10,"N#Cc1ccc(-c2cc(C(=O)Nc3ccc(S(=O)(=O)N4CCCCC4)cc3)no2)cc1 [NP16-XL-059, 4-[2-(4-cyano-phenyl)-1,5-oxazole]-N-[4-(1-piperidine-1-sulfonyl)phenyl]-amide]",0.06
11,"O=C(/C=C/c1ccc(Br)cc1)Nc1ccc(S(=O)(=O)N2CCCc3ccccc32)cc1 [NP16-XL-029, 3-(4-bromophenyl)-N-[4-(1,2,3,4--tetra-hydroquinoline-1-sulfonyl)phenyl]-acrylamide]",0.53
12,"O=C(/C=C/c1ccccc1Br)Nc1ccc(C(=O)Nc2ccccc2)cc1 [NP16-XL-048, 3-(6-bromphenyl)-N-[(4-phenylamine-carbonyl)phenyl]-acrylamide]",0.23
13,"CC(=O)Oc1cccc(/C=C/C(=O)Nc2ccc(S(=O)(=O)N3CCCCC3)cc2)c1 [NP16-XL-012, 3-(5-acetoxyl-phenyl)-N-[4-(1-piperidine-1-sulfonyl)phenyl]-acrylamide]",1.16
14,"O=C(/C=C/c1ccccc1F)Nc1ccc(S(=O)(=O)Nc2ccccc2)cc1 [NP16-XL-041, 3-(6-fluorophenyl)-N-[(4-phenyl-sulfamoyl)phenyl]-acrylamide]",3.17
15,"N#Cc1ccccc1/C=C/C(=O)Nc1ccc(S(=O)(=O)Nc2ccccc2)cc1 [NP16-XL-043, 3-(6-cyanophenyl)-N-[(4-phenyl-sulfamoyl)phenyl]-acrylamide]",3.23
16,"O=C(/C=C/c1c(Br)cccc1Br)Nc1ccc(S(=O)(=O)N2CCCCC2)cc1 [NP16-XL-058, 3-(2,6-dibromo-phenyl)-N-[4-(1-piperidine-1-sulfonyl)phenyl]-acrylamide]",0.16
17,"CC(=O)Oc1ccccc1/C=C/C(=O)Nc1ccc(S(=O)(=O)N2CCCCC2)cc1 [NP16-XL-013, 3-(6-acetoxyl-phenyl)-N-[4-(1-piperidine-1-sulfonyl)phenyl]-acrylamide]",0.28

row,SMILES,Relative ratio to NP16 based on inhibition ratio
1,"O=C(/C=C/c1ccccc1)Nc1ccc(S(=O)(=O)N2CCc3ccccc3C2)cc1 [NP16-XL-032, 3-phenyl-N-[4-(3,4-dihydro-1H-isoquinoline-2-sulfonyl)phenyl]-acrylamide]",1.17
2,"CN1CCN(S(=O)(=O)c2ccc(NC(=O)/C=C/c3ccccc3C#N)cc2)CC1 [NP16-XL-055, 3-(6-cyanophenyl)-N-[4-(4-methyl-1,4-piperazine-1-sulfonyl)phenyl]-acrylamide]",3.19
3,"O=C(/C=C/c1ccccc1)Nc1ccc(S(=O)(=O)Nc2ccccc2)cc1 [NP16-XL-037, 3-phenyl-N-[(4-phenylsulfamoyl)-phenyl]acrylamide]",3.02
4,"O=C(Nc1ccc(S(=O)(=O)N2CCCCC2)cc1)c1cc(-c2cccs2)on1 [NP16-XL-060, 4-[2-(thiophen-5-yl)-1,5-oxazole]-N-[4-(1-piperidine-1-sulfonyl)phenyl]-amide]",0.06
5,"O=C(/C=C/c1ccc(Br)cc1)Nc1ccc(S(=O)(=O)N2CCCCC2)cc1 [NP16-XL-014, 3-(4-bromophenyl)-N-[4-(1-piperidine-1-sulfonyl)phenyl]-acrylamide]",0.74
6,"O=C(/C=C/c1ccccc1Br)Nc1ccc(S(=O)(=O)Nc2ccccc2)cc1 [NP16-XL-038, 3-(6-bromophenyl)-N-[(4-phenylsul-famoyl)phenyl]-acrylamide]",3.23
7,"O=C(Nc1ccc(S(=O)(=O)N2CCCCC2)cc1)c1ncoc1-c1ccccc1 [NP16-XL-057, 4-(5-phenyl-1,3-oxazole)-N-[4-(1-piperidine-1-sulfonyl)phenyl]-amide]",0.14
8,"O=C(/C=C/c1c(F)cccc1F)Nc1ccc(S(=O)(=O)N2CCCCC2)cc1 [NP16-XL-045, 3-(2,6-difluoro-phenyl)-N-[4-(1-piperidine-1-sulfonyl)phenyl]-acrylamide]",0.88
9,"Cc1ccccc1/C=C/C(=O)Nc1ccc(S(=O)(=O)N2CCCCC2)cc1 [NP16-XL-018, 3-(6-methylphenyl)-N-[4-(1-piperidine-1-sulfonyl)phenyl]-acrylamide]",2.48
10,"CN1CCN(S(=O)(=O)c2ccc(NC(=O)/C=C/c3ccccc3Br)cc2)CC1 [NP16-XL-052, 3-(6-bromophenyl)-N-[4-(4-methyl-1,4-piperazine-1-sulfonyl)phenyl]-acrylamide]",3.18
11,"N#Cc1ccccc1/C=C/C(=O)Nc1ccc(C(=O)Nc2ccccc2)cc1 [NP16-XL-049, 3-(6-cyanophenyl)-N-[(4-phenylamine-carbonyl)phenyl]-acryiamide]",0.21
12,"CN1CCN(S(=O)(=O)c2ccc(NC(=O)/C=C/c3ccccc3F)cc2)CC1 [NP16-XL-054, 3-(6-fluorophenyl)-N-[4-(4-methyl-1,4-piperazine-1-sulfonyl)phenyl]-acrylamide]",2.86
13,"O=C(/C=C/c1ccccc1)Nc1ccc(S(=O)(=O)N2CCCCC2)cc1 [NP16-XL-010, 3-phenyl-N-[4-(1-piperidine-1-sulfonyl)-phenyl]acrylamide]",1.43
14,"N#Cc1ccccc1/C=C/C(=O)Nc1ccc(S(=O)(=O)N2CCCCC2)cc1 [NP16-XL-047, 3-(6-cyanophenyl)-N-[4-(1-piperidine-1-sulfonyl)phenyl]-acrylamide]",3.18
15,"O=C(/C=C/c1ccccc1Br)Nc1ccc(S(=O)(=O)N(C(=O)/C=C/c2ccccc2Br)c2ccccc2)cc1 [NP16-XL-039, 3-(6-bromophenyl)-N-{[4-(N-phenyl-3-6-bromophenyl-prop-2-enamido)-sulfonyl]phenyl}-acrylamide]",3.23
16,"O=C(/C=C/c1cccc(Br)c1)Nc1ccc(S(=O)(=O)N2CCCCC2)cc1 [NP16-XL-015, 3-(5-bromophenyl)-N-[4-(1-piperidine-1-sulfonyl)phenyl]-acrylamide]",1.18

# System: not listed separately
# Test: Solubility in commonly used solvents for oral administration
# Format: physicochemical
# Settings: 1:1 Labrasol ALF/PEG300, organic solvent or mixture
row,solubility [µg/mL],SMILES
1,6340,"O=C(/C=C/c1ccccc1Cl)Nc1ccc(S(=O)(=O)N2CCCCC2)cc1 [NP16-XL-061, 3-(6-chlorophenyl)-N-[4-(1-piperidine-1-sulfonyl)phenyl]-acrylamide]"

# Same assay, conditions: 1:1 Labrasol ALF/PEG400, organic solvent or mixture
row,solubility [µg/mL],SMILES
1,7600,"O=C(/C=C/c1ccccc1Cl)Nc1ccc(S(=O)(=O)N2CCCCC2)cc1 [NP16-XL-061, 3-(6-chlorophenyl)-N-[4-(1-piperidine-1-sulfonyl)phenyl]-acrylamide]"

# Same assay, conditions: Labrasol ALF, oil or lipid
row,solubility [µg/mL],SMILES
1,6080,"O=C(/C=C/c1ccccc1Cl)Nc1ccc(S(=O)(=O)N2CCCCC2)cc1 [NP16-XL-061, 3-(6-chlorophenyl)-N-[4-(1-piperidine-1-sulfonyl)phenyl]-acrylamide]"

# Same assay, conditions: PEG300, organic solvent or mixture
row,solubility [µg/mL],SMILES
1,7150,"O=C(/C=C/c1ccccc1Cl)Nc1ccc(S(=O)(=O)N2CCCCC2)cc1 [NP16-XL-061, 3-(6-chlorophenyl)-N-[4-(1-piperidine-1-sulfonyl)phenyl]-acrylamide]"

# Same assay, conditions: PEG400, organic solvent or mixture
row,solubility [µg/mL],SMILES
1,6940,"O=C(/C=C/c1ccccc1Cl)Nc1ccc(S(=O)(=O)N2CCCCC2)cc1 [NP16-XL-061, 3-(6-chlorophenyl)-N-[4-(1-piperidine-1-sulfonyl)phenyl]-acrylamide]"
